Test results taken from article PMC11413854, “Reversible Control of Native GluN2B-Containing NMDA Receptors with Visible Light” (ACS Chemical Neuroscience, 2024).
“And” between values parts separate entries of the source, which are not always exact repeats. Equal entries are not always repeated. Where two headings read alike, the source gives them in different places.

Experiments:
[1] = test system: GluN1/GluN2A/GluN2B triheteromers; assay: TEVC on Xenopus oocytes, GluN1/GluN2A/GluN2B triheteromers; type: cell-based, rat GluN1, rat GluN2A, mouse GluN2B; conditions: 1 µM trans-OptoNAM-3 (dark)
Description: (§1) NMDARs exist as multiple subtypes in the brain that are formed by the combination of two GluN1 and either two identical (diheteromers) or different (triheteromers) GluN2 (GluN2A-D) subunits.[1] We assessed the selectivity of trans-OptoNAM-3 (dark PSS) for the other NMDAR subtypes.
(§2) We used cDNA coding for rat GluN1–1a (named GluN1 herein) (GenBank: U08261.1), rat GluN2A (GenBank: D13211.1), mouse GluN2B (GenBank: D10651.2), rat GluA1 flop (GenBank: M36418.2), and rat Myc-GluA2(Q)-flip (GenBank: AF164344.1) cloned into pcDNA3-based expression plasmids. GluK2 (GenBank: Z11548.1) corresponds to the fully RNA-edited version.[80] The GluN2B-ΔNTD construct is from ref[45] and GluN2B–N615K is from ref[81]. Single mutants GluN2B-Q110G and GluN1-L135H were from ref[19]. The GluA2 cDNA contains a Myc tag ([…]) fused between the signal peptide and the N-terminus sequences, and the GluA2 subunit is […] for its Q/R/N site (GluA2(Q)) to allow permeation of homomeric GluA2 receptors.[2] cDNAs coding for rat GluN2C (GenBank: M91563.1) and GluN2D subunits (GenBank: L31611.1) were in prK5 plasmids.
(§3) Expression of recombinant NMDA receptors was obtained by oocyte nuclear coinjection of 37 nL of a mixture of cDNAs (at 30 ng/μL) coding for GluN1–1a and various GluN2 subunits (ratio 1:1). The protocol in ref[43] was followed for the expression of GluN1/GluN2A/GluN2B triheteromers. […]

GluA2 AMPA receptors = molecular target: T1, GluA2 AMPA receptors (Rattus norvegicus, UniProt P19491); assay: TEVC on Xenopus oocytes, GluA2 AMPA receptors; type: cell-based; parameters: Inhibition, individual values: scale not given here; conditions: for Inhibition, individual values: GluA2, single cells
T1 construct: expressed in transfected cells; host or cells: Xenopus laevis oocytes (mRNA injection)
Description: as §2
The expression of recombinant GluA1, GluA2(Q), and GluK2 receptors was obtained by oocyte injection of 50 nL of mRNAs (at 1 μg/μL). mRNAs were generated using the T7 (GluA1 and GluA2) and T3 (GluK2) mMessage mMachine transcription kits (Invitrogen) after cDNA linearization with the SacII restriction enzyme. The injected oocytes were stored in the same conditions as for NMDARs and used 72–96 h postinjection.
TEVC recordings were performed 1–3 days following injection. TEVC recordings were performed using an Oocyte Clamp amplifier OC-725 (Warner Instruments) and computer-controlled via a 1440A Digidata (Molecular Devices). Currents were sampled at 100 Hz and low-pass-filtered at 20 Hz using an 8-pole Bessel filter (900 Series, Frequency Devices Inc.). Data were collected with Clampfit 10.3. During the recording, the cells were continuously perfused with external recording Ringer solution at pH 7.3 (in mM: 100 NaCl, 0.3 BaCl2, 5 HEPES, and 2.5 KCl, pH adjustment to 7.3 by the addition of NaOH). The NMDA currents were induced by simultaneous application of L-glutamate and glycine (agonist solution) at saturating concentration (100 μM each), and DTPA (10 μM) to prevent receptor inhibition by ambient zinc (∼20 nM).[83] A control solution (100 μM glycine and 10 μM DTPA in Ringer pH 7.3) was used for washout of drug and test solutions. AMPA and kainate receptor currents were induced in the same conditions as NMDA currents (100 μM glutamate and glycine + 10 μM DTPA). Oocytes expressing GluK2 kainate receptors were treated with concanavalin A ([…], equivalent to 1.1 mg/mL) during 10 min before recording to decrease receptor desensitization. Unless notified, recordings were performed at a holding potential of −60 mV. All experiments were performed at room temperature. […]

GluN1/GluN2A = molecular target: T2, GluN1/GluN2A (Rattus norvegicus, UniProt P35439+Q00959); assay: TEVC on Xenopus oocytes, GluN1/GluN2A diheteromers; type: cell-based; conditions: 1 µM trans-OptoNAM-3 (dark); listed as trans-OptoNAM-3
T2 construct: expressed in transfected cells; host or cells: Xenopus laevis oocytes (nuclear cDNA injection)
Description: as §1, §2, §3

T1 sequence (P19491 22-883 isoform P19491-2 limits assumed): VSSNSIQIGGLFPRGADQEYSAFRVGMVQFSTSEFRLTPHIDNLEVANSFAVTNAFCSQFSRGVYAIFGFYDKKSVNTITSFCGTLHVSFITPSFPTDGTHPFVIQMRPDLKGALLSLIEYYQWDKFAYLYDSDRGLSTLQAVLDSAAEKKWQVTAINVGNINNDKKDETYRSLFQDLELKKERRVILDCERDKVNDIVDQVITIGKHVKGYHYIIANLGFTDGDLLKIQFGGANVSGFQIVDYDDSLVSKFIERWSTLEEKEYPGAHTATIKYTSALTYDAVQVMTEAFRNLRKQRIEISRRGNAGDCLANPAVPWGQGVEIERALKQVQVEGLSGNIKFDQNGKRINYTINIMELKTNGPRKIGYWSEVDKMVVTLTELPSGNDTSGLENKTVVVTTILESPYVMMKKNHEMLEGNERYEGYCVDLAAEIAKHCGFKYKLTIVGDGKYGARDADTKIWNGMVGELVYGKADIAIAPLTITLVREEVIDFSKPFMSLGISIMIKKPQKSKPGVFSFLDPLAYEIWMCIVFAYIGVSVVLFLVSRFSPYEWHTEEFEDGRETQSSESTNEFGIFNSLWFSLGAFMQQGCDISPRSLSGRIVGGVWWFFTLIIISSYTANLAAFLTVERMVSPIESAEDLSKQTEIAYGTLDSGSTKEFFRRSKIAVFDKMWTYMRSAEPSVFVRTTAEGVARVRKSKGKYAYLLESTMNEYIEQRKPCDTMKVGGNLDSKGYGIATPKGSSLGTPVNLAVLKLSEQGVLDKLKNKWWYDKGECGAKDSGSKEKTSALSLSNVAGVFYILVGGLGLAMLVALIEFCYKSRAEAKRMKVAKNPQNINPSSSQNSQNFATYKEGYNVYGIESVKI
T2 sequence (Q00959 23-1464, other chains not shown): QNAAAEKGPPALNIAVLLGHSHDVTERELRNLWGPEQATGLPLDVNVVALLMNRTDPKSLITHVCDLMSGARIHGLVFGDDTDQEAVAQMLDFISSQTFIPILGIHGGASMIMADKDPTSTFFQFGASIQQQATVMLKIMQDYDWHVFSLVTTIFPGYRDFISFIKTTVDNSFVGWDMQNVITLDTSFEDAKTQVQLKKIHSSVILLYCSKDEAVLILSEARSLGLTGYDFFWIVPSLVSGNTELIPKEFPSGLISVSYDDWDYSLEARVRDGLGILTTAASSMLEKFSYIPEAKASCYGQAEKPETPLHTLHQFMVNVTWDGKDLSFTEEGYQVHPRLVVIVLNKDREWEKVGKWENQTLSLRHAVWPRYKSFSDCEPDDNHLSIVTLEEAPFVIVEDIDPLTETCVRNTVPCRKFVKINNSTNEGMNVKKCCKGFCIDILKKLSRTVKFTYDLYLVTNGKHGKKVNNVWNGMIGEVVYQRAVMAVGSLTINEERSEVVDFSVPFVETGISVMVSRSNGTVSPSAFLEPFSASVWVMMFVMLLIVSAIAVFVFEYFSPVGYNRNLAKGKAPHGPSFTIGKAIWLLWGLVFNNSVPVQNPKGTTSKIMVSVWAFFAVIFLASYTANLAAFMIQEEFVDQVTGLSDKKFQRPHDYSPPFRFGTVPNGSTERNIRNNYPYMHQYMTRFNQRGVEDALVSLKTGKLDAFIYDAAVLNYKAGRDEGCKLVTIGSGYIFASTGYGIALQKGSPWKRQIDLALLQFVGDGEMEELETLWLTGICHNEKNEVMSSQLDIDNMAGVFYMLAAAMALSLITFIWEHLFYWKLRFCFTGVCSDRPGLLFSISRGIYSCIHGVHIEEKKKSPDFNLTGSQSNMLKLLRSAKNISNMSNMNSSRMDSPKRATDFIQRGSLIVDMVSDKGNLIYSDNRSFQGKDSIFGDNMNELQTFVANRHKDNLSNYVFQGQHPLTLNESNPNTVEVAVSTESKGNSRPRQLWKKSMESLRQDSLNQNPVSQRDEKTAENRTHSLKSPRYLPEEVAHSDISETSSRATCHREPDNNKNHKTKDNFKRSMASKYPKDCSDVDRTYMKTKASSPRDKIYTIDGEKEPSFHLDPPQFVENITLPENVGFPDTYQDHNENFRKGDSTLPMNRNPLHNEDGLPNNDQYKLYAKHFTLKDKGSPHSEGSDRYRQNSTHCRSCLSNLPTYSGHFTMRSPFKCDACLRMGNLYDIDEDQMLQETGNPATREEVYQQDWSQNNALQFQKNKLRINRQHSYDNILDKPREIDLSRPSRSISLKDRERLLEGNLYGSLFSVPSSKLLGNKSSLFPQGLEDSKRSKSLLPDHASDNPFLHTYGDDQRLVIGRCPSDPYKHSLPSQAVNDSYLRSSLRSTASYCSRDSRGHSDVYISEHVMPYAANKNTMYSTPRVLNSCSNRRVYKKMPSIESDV

SMILES: c1ccc(/N=N/c2ccc(CCNc3ccncc3)cc2)cc1 [OptoNAM-3, (E)-N-(4-(Phenyldiazenyl)phenethyl)pyridin-4-amine]
- inhibition of GluN1/GluN2A/GluN2B triheteromers [1]: 11.404%
- inhibition of GluN1/GluN2A/GluN2B triheteromers ([1]; listed as trans-OptoNAM-3): 11.4% ± 0.9%
- inhibition at 10 µM (GluA2 AMPA receptors; 10 µM OptoNAM-3 365 nm PSS, construct GluA2, read-out: Inhibition (%)): -4.9%
- Inhibition, individual values (GluA2 AMPA receptors; 10 µM OptoNAM-3 dark PSS (trans) as headed, second block): -0.00171 and -0.04016 and -0.1082 and -0.02166 and -0.07608 and -0.04674
- Inhibition, individual values (GluA2 AMPA receptors; 10 µM OptoNAM-3 dark PSS (trans), first block): -0.007761 and -0.14 and -0.08034 and -0.01769 and -0.2089 and 0.009857
- inhibition at 10 µM (GluA2 AMPA receptors; 10 µM OptoNAM-3 dark PSS (trans), construct GluA2, read-out: Inhibition (%)): -7.4%
- inhibition of GluA2 currents (GluA2 AMPA receptors; 10 µM, dark PSS): no effect
- inhibition at 10 µM (GluA2 AMPA receptors; 10 µM, dark PSS, read-out: inhibition of GluA2 currents): -7.4 ± 3.5%
- inhibition of GluN1/GluN2A (GluN1/GluN2A): 2.7% ± 0.5%
